Test results as given in US20210052492A1, “Cannabinoid Dosing Regime For Psoriasis” (Botanix Pharmaceuticals Ltd., priority 2018, published 2021).

Experiment: Skin permeation of CBD in a Franz-type diffusion cell
Assay type: in vitro ADME
Settings: 5 ul of 5.0% w/w CBD formulation, 48-hour exposure
Experimental: Dermatomed skin from a single donor was mounted in a Franz-type diffusion cell (0.55 cm^2 receptor fluid exposure surface area) and dosed with 5 ul of CBD formulated in an mixture of a volatile solvent (hexylmethyldisiloxane/polymethylsiloxane—93% w/w), and residual solvent (arlamol E—2% w/w) at a concentration of 5.0% (w/w; 35.5 mg/ml). Following dosing, receptor phase samples were collected at 4, 10, 24 and 48 hours; after which the study was terminated.
The residual formulation was removed by tape stripping and the epidermis and dermis separated by blunt dissection. The levels of CBD in the epidermis, dermis, and receptor fluid samples were then analyzed using a bioanalytical method with LC-MS/MS detection.

C=C(C)C1CCC(C)=CC1c1c(O)cc(CCCCC)cc1O (centres unmarked) [CBD, 2-[3-methyl-6-(1-methylethenyl)-2-cyclohexen-1-yl]-5-pentyl-1,3-benzenediol]
skin permeation through to the receptor phase, % of applied dose: less than 0.081% | skin permeation, amount in the receptor phase: < 278 ng/cm^2
